Data from PubChem BioAssay (NCI).
Where “and” joins values, the source holds several entries; their conditions need not be identical. Equal values may be shown once.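 48-hour exposure; five concentrations; linearly interpolated endpoints. GI50 is the concentration that inhibits growth by half. TGI: concentration producing complete growth inhibition.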

Key:
Assay in all cases: NCI-60 cell line screen, 48 h
CAKI-1 renal = tested on: CAKI-1 renal
NCI-H460 lung = tested on: NCI-H460 lung
SR leukemia = tested on: SR leukemia
U251 CNS = tested on: U251 CNS
UO-31 renal = tested on: UO-31 renal
BT-549 breast = tested on: BT-549 breast
DU-145 prostate = tested on: DU-145 prostate
HOP-62 NSCLC = tested on: HOP-62 NSCLC
MCF7 breast = tested on: MCF7 breast
NCI/ADR-RES ovarian = tested on: NCI/ADR-RES ovarian

Compound | TGI (CAKI-1 renal) | TGI (NCI-H460 lung) | TGI (SR leukemia) | TGI (U251 CNS) | TGI (UO-31 renal) | TGI (BT-549 breast) | TGI (DU-145 prostate) | TGI (HOP-62 NSCLC) | TGI (MCF7 breast) | TGI (NCI/ADR-RES ovarian) | GI50 (BT-549 breast) | GI50 (CAKI-1 renal) | GI50 (DU-145 prostate) | GI50 (HOP-62 NSCLC) | GI50 (MCF7 breast) | GI50 (NCI-H460 lung) | GI50 (U251 CNS) | GI50 (UO-31 renal) | GI50 (NCI/ADR-RES ovarian) | GI50 (SR leukemia)
CCOc1ccc(NC(=O)CC2SC(=Nc3ccc(C)cc3C)NC2=O)cc1 (stereo not drawn) | > 100 µM | > 100 µM | > 100 µM | > 100 µM | > 100 µM | – | – | – | – | – | – | – | – | – | – | – | – | – | – | –
CNc1cc2oc(=O)cc(C)c2cc1C | > 100 µM | > 100 µM | > 100 µM | > 100 µM | – | > 100 µM | > 100 µM | > 100 µM | > 100 µM | > 100 µM | – | – | – | – | – | – | – | – | – | –
Oc1oc(C(=C2N=c3ccccc3=N2)c2ccc(Cl)cc2)c(O)c1-c1ccc(Cl)cc1 | 7.14 µM | > 100 µM | 12.6 µM | 22.9 µM | 8.08 µM | – | – | 4.51 µM | – | – | – | – | – | – | – | – | – | – | – | –
O=C1C/C(Br)=C\c2ccccc2-c2ccccc21 | 5.86 µM | 10.4 µM | 2.73 µM | 6.83 µM | 6.87 µM | – | – | 9.67 µM | – | – | – | – | – | – | – | – | – | – | – | –
c1ccc2c(c1)CCc1c(-c3ccncc3)n[nH]c1-2 | 73.4 µM | > 100 µM | 73.8 µM | 57.8 µM | – | – | – | > 100 µM | – | – | – | – | – | – | – | – | – | – | – | –
COC(=N)c1csc(C2OC(CO)C(O)C2O)n1 (stereo not drawn) | > 100 µM | > 100 µM | – | > 100 µM | > 100 µM | – | – | > 100 µM | – | – | – | – | – | – | – | – | – | – | – | –
FC(F)(F)c1ccc2nc(NCc3ccccc3)c(-c3ccccc3)nc2c1 | – | > 100 µM | 80.8 µM | 86.8 µM | 92.9 µM | – | – | > 100 µM | – | – | – | – | – | – | – | – | – | – | – | –
Cc1cc(C)nc(NS(=O)(=O)c2ccc(Nc3c4ccccc4nc4c(C(=O)N5CCN(CCO)CC5)cccc34)cc2)n1 | > 100 µM | > 100 µM | > 100 µM | > 100 µM | > 100 µM | – | – | > 100 µM | – | – | – | – | – | – | – | – | – | – | – | –
COc1c(C)c(OCC=C(C)C)cc(CO)c1CO | > 100 µM | > 100 µM | > 100 µM | > 100 µM | – | > 100 µM | > 100 µM | > 100 µM | > 100 µM | > 100 µM | – | – | – | – | – | – | – | – | – | –
CCOC(=O)Nc1c(C)nc2ccccn12 | > 100 µM | > 100 µM | – | > 100 µM | > 100 µM | > 100 µM | > 100 µM | > 100 µM | > 100 µM | – | > 100 µM | > 100 µM | > 100 µM | > 100 µM | > 100 µM | > 100 µM | > 100 µM | > 100 µM | – | –
CCC(C)(C)n1c(C)nc2c1C(=O)c1ccccc1C2=O | – | 29 µM | 42.7 µM | > 100 µM | 90.7 µM | – | – | > 100 µM | – | – | – | – | – | – | – | – | – | – | – | –
Cc1cc2c(cc1C)[n+](=O)cc(C(=O)C/C(=N/NC(=S)NN)C(=O)Nc1cccc(C(F)(F)F)c1)n2[O-] | > 100 µM | > 100 µM | > 100 µM | > 100 µM | > 100 µM | – | – | > 100 µM | – | – | – | – | – | – | – | – | – | – | – | –
COc1cc(OC)c(OC)cc1/C=N/NC(=O)N/N=C/c1cc(OC)c(OC)cc1OC | – | > 100 µM | – | > 100 µM | > 100 µM | – | – | – | – | – | – | – | – | – | – | – | – | – | – | –
CNc1nc(N)nc(Nc2ccc(I)cc2)c1N=O | – | > 100 µM | > 100 µM | – | > 100 µM | > 100 µM | > 100 µM | > 100 µM | > 100 µM | > 100 µM | – | – | – | – | – | – | – | – | – | –
COc1ccc2c(=O)oc3c(OC)cc(CCN(C)C)c4c(=O)oc1c2c34 | 31.6 µM and 15.4 µM | 29.9 µM and 9.03 µM | – | 27.6 µM and 19 µM | 31.1 µM and 15.6 µM | 15.4 µM | 15.8 µM | 28.7 µM | 12.9 µM | 23.5 µM | – | 17.3 µM and 8.46 µM | – | – | – | 13.8 µM and 2.4 µM | – | 17.3 µM and 8.48 µM | – | –
CN(C)CCNC(=O)Cc1ccccc1Nc1c(Cl)cccc1Cl | – | 24.7 µM | 37.7 µM | 23.6 µM | 25.6 µM | – | – | 28.5 µM | – | – | – | – | – | – | – | – | – | – | – | –
CC1=C(C(=O)Nc2ccccc2)C(c2ccc(Cl)c(Cl)c2)C(C(=O)Nc2ccccc2)=C(C)N1 | – | 31.2 µM | – | 27.6 µM | 26 µM | – | – | 28.6 µM | – | – | – | – | – | – | – | – | – | – | – | –
Cc1nc2c(N)ncnc2o1 | > 100 µM | > 100 µM | – | > 100 µM | > 100 µM | – | – | > 100 µM | – | – | – | – | – | – | – | – | – | – | – | –
CC(=O)N/C(=C\c1ccccc1/C=C(\NC(C)=O)c1nc2cc(C)c(C)cc2[nH]1)c1nc2cc(C)c(C)cc2[nH]1 | 78.1 µM | 97.9 µM | > 100 µM | > 100 µM | 12.5 µM | – | – | 68.6 µM | – | – | – | – | – | – | – | – | – | – | – | –
CO[C@@H]1CC[C@]2(C)OC[C@H](C)[C@@H]3C[C@@H](C)[C@@H](OC(C)=O)[C@@H]4[C@H]3[C@@H]2O[C@H]4C[C@@]1(C)O | > 100 µM | > 100 µM | > 100 µM | > 100 µM | > 100 µM | > 100 µM | > 100 µM | – | > 100 µM | > 100 µM | > 100 µM | > 100 µM | > 100 µM | – | > 100 µM | > 100 µM | > 100 µM | > 100 µM | > 100 µM | > 100 µM
O=C1c2cccc3cccc(c23)C(=O)N1CCN(CCO)CCO | – | 69.9 µM | 44.9 µM | > 100 µM | > 100 µM | – | – | > 100 µM | – | – | – | – | – | – | – | – | – | – | – | –
C/C(=N\NC(N)=O)c1sc(-c2nc(C)c(/C(C)=N/NC(N)=O)s2)nc1C | > 100 µM | > 100 µM | 43.5 µM | > 100 µM | > 100 µM | – | – | > 100 µM | – | – | – | – | – | – | – | – | – | – | – | –
CCOC(=O)Cc1csc(Nc2ccccc2[N+](=O)[O-])n1 | > 100 µM | > 100 µM | 61.3 µM | > 100 µM | > 100 µM | – | – | > 100 µM | – | – | – | – | – | – | – | – | – | – | – | –
C=C(C)C(C1C=C(CCC(C=O)=C(C)C)C(=O)O1)C1(OC)C=C(C)C(=O)O1 (stereo not drawn) | > 100 µM | 28.8 µM | – | > 100 µM | > 100 µM | – | > 100 µM | > 100 µM | 30.3 µM | > 100 µM | – | > 100 µM | > 100 µM | > 100 µM | 7.6 µM | 12.5 µM | 74.7 µM | 97.1 µM | > 100 µM | –
CN1Nc2ccccc2CC1=O | > 100 µM | > 100 µM | – | > 100 µM | > 100 µM | – | – | > 100 µM | – | – | – | – | – | – | – | – | – | – | – | –
CCCCCCCCCCCC[N+]12CC[N+](CCN)(CC1)CC2 | > 100 µM | > 100 µM | 81.7 µM | > 100 µM | > 100 µM | – | – | > 100 µM | – | – | – | – | – | – | – | – | – | – | – | –
